Experimental data taken from paper PMC9603901, “Therapeutic Potential of Antimicrobial Peptide PN5 against Multidrug-Resistant E. coli and Anti-Inflammatory Activity in a Septic Mouse Model” (Microbiology Spectrum, 2022).
Converted amounts (≈) assume the structure as drawn.

How the values were obtained:
RAW 264.7 cells [1] = experiment: MTT cell viability; assay type: cell-based, mouse; conditions: 24 h
Method: (§1) RAW 264.7 cells (mouse macrophage cells) were maintained in high-glucose Dulbecco’s modified Eagle medium (DMEM) (Welgene, Daegu, South Korea) supplemented with 10% fetal bovine serum (FBS) (Gibco) and 1% penicillin at 37°C in humidified 5% CO2. Cells (2 × 10^5 cells well^−1) were seeded into DMEM supplemented with 10% FBS medium in a 96-well plate. The MTT assay was performed after culturing the cells in 96-well plates at a density of 2 × 10^5 cells well^−1, followed by treatment with serially diluted PN5, magainin 2, and melittin. After 24 h, the medium was discarded, and 100 μL DMEM and 10% FBS medium containing 0.5 mg mL^−1 MTT were added to each well. After 4 h of incubation, the medium was discarded and dimethyl sulfoxide was added to each well to solubilize the formazan. The optical densities at 570 and 650 nm (OD570 and OD650, respectively) of the treated cells were compared to those of control cells. The hemolytic activity of the peptides was evaluated as the release of hemoglobin from an 8% mRBC suspension. A 100-μL aliquot of the 8% mRBC suspension was added to the wells of a 96-well plate, and 100 μL of peptide solution in phosphate-buffered saline (PBS) was added at a final peptide concentration of 200 μM. After incubation for 1 h at 37°C with shaking (50 rpm), the suspensions were centrifuged at 1,000 × g for 5 min. The absorbance of the supernatant was measured at 414 nm using a Versa Max microplate reader (Molecular Devices). As a control, no hemolysis and complete hemolysis were determined in PBS and 0.1% Triton X-100, respectively. The degree of hemolysis was calculated using the following equation as described in reference: %hemolysis=[(A414withpeptide-A414withPBS)/(A414with0.1%TritonX-100-A414 with PBS)] × 100

MDR E. coli ASEC 19 = experiment: microbe, parasite or virus in culture; assay type: cell-based, Escherichia coli; conditions: microdilution, LB, 18 to 24 h, 37°C, three independent experiments
Method: (§2) Bacterial cells were cultured at 37°C in the appropriate culture media with shaking (180 rpm). Luria-Bertani broth (LB) (244620; BD Difco) was used for E. coli ATCC 25922, ASEC strains, and B. subtilis KCTC 2217. Nutrient broth (NB) (234000; BD Difco) was used for P. aeruginosa ATCC 27853, S. Typhimurium KCTC 1926, and A. baumannii KCTC 2508. Tryptic soy broth (TSB) (211825; BD Difco) was used for S. aureus ATCC 25923. Finally, brain heart infusion (BHI) (237500; BD Difco) was used for L. monocytogenes KCTC 3710. The antimicrobial activity of each peptide was determined using microdilution assays. To this end, 2-fold serial dilution series of each peptide (from 1 to 64 μM) were added to duplicate media with 10 mM sodium phosphate buffer (pH 7.4). Fifty microliters of the peptide and antibiotic solution was added to each well of a 96-well plate (32096, surface nontreatment; SPL Life Sciences). Then, 50 μL of 2 × 10^5 CFU mL^−1 of bacteria was added to each well, and the samples were incubated for 18 to 24 h without shaking at 37°C.

MDR E. coli ASEC 4 = experiment: microbe, parasite or virus in culture; assay type: cell-based, Escherichia coli; conditions: microdilution, LB, 18 to 24 h, 37°C, three independent experiments
Method: as §2

MDR E. coli ASEC 17 = experiment: microbe, parasite or virus in culture; assay type: cell-based, Escherichia coli; conditions: microdilution, LB, 18 to 24 h, 37°C, three independent experiments
Method: as §2

MDR E. coli ASEC 1 = experiment: microbe, parasite or virus in culture; assay type: cell-based, Escherichia coli; conditions: microdilution, LB, 18 to 24 h, 37°C, three independent experiments
Method: as §2

MDR E. coli ASEC 3 = experiment: microbe, parasite or virus in culture; assay type: cell-based, Escherichia coli; conditions: microdilution, LB, 18 to 24 h, 37°C, three independent experiments
Method: as §2

MDR E. coli ASEC 18 = experiment: microbe, parasite or virus in culture; assay type: cell-based, Escherichia coli; conditions: microdilution, LB, 18 to 24 h, 37°C, three independent experiments
Method: as §2

MDR E. coli ASEC 13 = experiment: microbe, parasite or virus in culture; assay type: cell-based, Escherichia coli; conditions: microdilution, LB, 18 to 24 h, 37°C, three independent experiments
Method: as §2

MDR E. coli ASEC 5 = experiment: microbe, parasite or virus in culture; assay type: cell-based, Escherichia coli; conditions: microdilution, LB, 18 to 24 h, 37°C, three independent experiments
Method: as §2

MDR E. coli ASEC 2 = experiment: microbe, parasite or virus in culture; assay type: cell-based, Escherichia coli; conditions: microdilution, LB, 18 to 24 h, 37°C, three independent experiments
Method: as §2

MDR E. coli ASEC 8 = experiment: microbe, parasite or virus in culture; assay type: cell-based, Escherichia coli; conditions: microdilution, LB, 18 to 24 h, 37°C, three independent experiments
Method: as §2

MDR E. coli ASEC 6 = experiment: microbe, parasite or virus in culture; assay type: cell-based, Escherichia coli; conditions: microdilution, LB, 18 to 24 h, 37°C, three independent experiments
Method: as §2

MDR E. coli ASEC 7 = experiment: microbe, parasite or virus in culture; assay type: cell-based, Escherichia coli; conditions: microdilution, LB, 18 to 24 h, 37°C, three independent experiments
Method: as §2

MDR E. coli ASEC 11 = experiment: microbe, parasite or virus in culture; assay type: cell-based, Escherichia coli; conditions: microdilution, LB, 18 to 24 h, 37°C, three independent experiments
Method: as §2

MDR E. coli ASEC 14 = experiment: microbe, parasite or virus in culture; assay type: cell-based, Escherichia coli; conditions: microdilution, LB, 18 to 24 h, 37°C, three independent experiments
Method: as §2

MDR E. coli ASEC 16 = experiment: microbe, parasite or virus in culture; assay type: cell-based, Escherichia coli; conditions: microdilution, LB, 18 to 24 h, 37°C, three independent experiments
Method: as §2

MDR E. coli ASEC 12 = experiment: microbe, parasite or virus in culture; assay type: cell-based, Escherichia coli; conditions: microdilution, LB, 18 to 24 h, 37°C, three independent experiments
Method: as §2

MDR E. coli ASEC 9 = experiment: microbe, parasite or virus in culture; assay type: cell-based, Escherichia coli; conditions: microdilution, LB, 18 to 24 h, 37°C, three independent experiments
Method: as §2

MDR E. coli ASEC 10 = experiment: microbe, parasite or virus in culture; assay type: cell-based, Escherichia coli; conditions: microdilution, LB, 18 to 24 h, 37°C, three independent experiments
Method: as §2

MDR E. coli ASEC 15 = experiment: microbe, parasite or virus in culture; assay type: cell-based, Escherichia coli; conditions: microdilution, LB, 18 to 24 h, 37°C, three independent experiments
Method: as §2

[2] = system: L. monocytogenes KCTC 3710; assay type: cell-based, Listeria monocytogenes; conditions: microdilution, BHI, 18 to 24 h, 37°C, three independent experiments
Method: as §2

B. subtilis KCTC 2217 = assay type: cell-based, Bacillus subtilis; conditions: microdilution, LB, 18 to 24 h, 37°C, three independent experiments
Method: as §2

A. baumannii KCTC 2508 = assay type: cell-based, Acinetobacter baumannii; conditions: microdilution, NB, 18 to 24 h, 37°C, three independent experiments
Method: as §2

S. Typhimurium KCTC 1926 = assay type: cell-based, Salmonella enterica serovar Typhimurium; conditions: microdilution, NB, 18 to 24 h, 37°C, three independent experiments
Method: as §2

RAW 264.7 cells [3] = experiment: IncuCyte Cytotox green time-dependent cytotoxicity; assay type: cell-based, mouse; conditions: 25 μM
Method: An IncuCyte cytotoxicity assay (Essen BioScience, Inc., Ann Arbor, MI, USA) was performed to evaluate time-dependent cytotoxicity. RAW 264.7 cells (2 × 10^5 cells well^−1) were seeded into 96-well culture plates and then treated with peptides and IncuCyte Cytotox green reagent (Essen BioScience, Inc.). Up to 200 μM PN5 and 25 μM melittin were used to treat RAW 264.7 cells, with the concentrations serially diluted by half. […] The cells were stained with IncuCyte Cytotox green reagent. The viability was measured using IncuCyte software (Essen BioScience, Inc.) ([56]).

mouse red blood cells = experiment: Hemolytic activity; assay type: cell-based; conditions: 8% mouse red blood cells, 1 h, 37°C
Method: as §1

P. aeruginosa ATCC 27853 = assay type: cell-based, Pseudomonas aeruginosa; conditions: microdilution, NB, 18 to 24 h, 37°C, three independent experiments
Method: as §2

S. aureus ATCC 25923 = assay type: cell-based, Staphylococcus aureus; conditions: microdilution, TSB, 18 to 24 h, 37°C, three independent experiments
Method: as §2

E. coli ATCC 25922 = experiment: NPN uptake, outer membrane permeability; assay type: cell-based, Escherichia coli; conditions: E. coli ATCC 25922, 4× MIC, 60 min, 10 μM NPN, relative to 0.1% Triton X-100
Method: The ability of PN5 to permeate the outer bacterial membrane was determined based on the uptake of NPN, a fluorescent dye. Briefly, E. coli 25922 cells grown to the logarithmic phase at 37°C were harvested by centrifugation at 6,000 × g and 4°C for 10 min. The bacterial cells were washed twice with 5 mM HEPES buffer (pH 7.4) and resuspended to OD600 of 0.4. NPN was added to the bacterial suspension at a final concentration of 10 μM. Aliquots of the peptides were added to the bacterial suspensions. Background fluorescence was recorded using a fluorescence spectrophotometer. The excitation and emission wavelengths were set to 350 and 420 nm, respectively. The values were converted to percentage of NPN uptake using the equation % NPN uptake = [(Fobs − F0)/(F100 − F0)] × 100, where Fobs is the fluorescence observed at each peptide concentration, F0 is the initial fluorescence of NPN with E. coli in the absence of peptides, and F100 is the fluorescence of NPN upon the addition of 0.1% Triton X-100, which was used as a positive control ([57]).

## CC[C@H](C)[C@H](NC(=O)CN)C(=O)NCC(=O)N[C@@H](C)C(=O)N[C@H](C(=O)N[C@@H](CC(C)C)C(=O)N[C@@H](CCCCN)C(=O)N[C@H](C(=O)N[C@@H](CC(C)C)C(=O)N[C@H](C(=O)N[C@H](C(=O)NCC(=O)N[C@@H](CC(C)C)C(=O)N1CCC[C@H]1C(=O)N[C@@H](C)C(=O)N[C@@H](CC(C)C)C(=O)N[C@H](C(=O)N[C@@H](CO)C(=O)N[C@@H](Cc1c[nH]c2ccccc12)C(=O)N[C@H](C(=O)N[C@@H](CCCCN)C(=O)N[C@@H](CCCNC(=N)N)C(=O)N[C@@H](CCCCN)C(=O)N[C@@H](CCCNC(=N)N)C(=O)N[C@@H](CCC(N)=O)C(=O)N[C@@H](CCC(N)=O)C(N)=O)[C@@H](C)CC)[C@@H](C)CC)[C@@H](C)O)[C@@H](C)O)C(C)C)C(C)C [Melittin]
RAW 264.7 cells [1]; 6.25 μM
  toxicity, MTT assay: over 50%
MDR E. coli ASEC 19
  MIC: 8 (22.77) μM
MDR E. coli ASEC 4
  MIC: 8 (22.77) μM
MDR E. coli ASEC 17
  MIC: 8 (22.77) μM
MDR E. coli ASEC 1
  MIC: 4 (11.39) μM
MDR E. coli ASEC 3
  MIC: 4 (11.39) μM
MDR E. coli ASEC 18
  MIC: 4 (11.39) μM
MDR E. coli ASEC 13
  MIC: 4 (11.39) μM
MDR E. coli ASEC 5
  MIC: 2 (5.69) μM
MDR E. coli ASEC 2
  MIC: 4 (11.39) μM
MDR E. coli ASEC 8
  MIC: 4 (11.39) μM
MDR E. coli ASEC 6
  MIC: 4 (11.39) μM
MDR E. coli ASEC 7
  MIC: 4 (11.39) μM
MDR E. coli ASEC 11
  MIC: 4 (11.39) μM
MDR E. coli ASEC 14
  MIC: 2 (5.69) μM
MDR E. coli ASEC 16
  MIC: 4 (11.39) μM
MDR E. coli ASEC 12
  MIC: 4 (11.39) μM
MDR E. coli ASEC 9
  MIC: 4 (11.39) μM
MDR E. coli ASEC 10
  MIC: 4 (11.39) μM
MDR E. coli ASEC 15
  MIC: 4 (11.39) μM
[2]
  MIC: 4 µM (≈ 11.4 µg/mL)
B. subtilis KCTC 2217
  MIC: 2 µM
A. baumannii KCTC 2508
  MIC: 2 µM
S. Typhimurium KCTC 1926
  MIC: 4 µM (≈ 11.4 µg/mL)
RAW 264.7 cells [3]
  cytotoxicity, Cytotox green fluorescence: immediately damaged the cells
Mouse red blood cells; 3.125 μM, PBS, A414, mean of three experiments
  hemolysis: 44.02%
Mouse red blood cells; 6.25 μM
  hemolysis: 77.24%

## Magainin 2
RAW 264.7 cells [1]; 200 μM
  toxicity, MTT assay: over 50%
MDR E. coli ASEC 1
  MIC: 16 (39.47) μM
MDR E. coli ASEC 3
  MIC: 16 (39.47) μM
MDR E. coli ASEC 18
  MIC: 16 (39.47) μM
MDR E. coli ASEC 13
  MIC: 16 (39.47) μM
MDR E. coli ASEC 5
  MIC: 16 (39.47) μM
MDR E. coli ASEC 2
  MIC: 8 (19.74) μM
MDR E. coli ASEC 8
  MIC: 16 (39.47) μM
MDR E. coli ASEC 6
  MIC: 4 (9.87) μM
MDR E. coli ASEC 7
  MIC: 8 (19.74) μM
MDR E. coli ASEC 11
  MIC: 16 (39.47) μM
MDR E. coli ASEC 14
  MIC: 4 (9.87) μM
MDR E. coli ASEC 16
  MIC: 8 (19.74) μM
MDR E. coli ASEC 12
  MIC: 16 (39.47) μM
MDR E. coli ASEC 9
  MIC: 8 (19.74) μM
MDR E. coli ASEC 10
  MIC: 16 (39.47) μM
MDR E. coli ASEC 15
  MIC: 16 (39.47) μM
P. aeruginosa ATCC 27853
  MIC: 32 µM
B. subtilis KCTC 2217
  MIC: 39.47 µg/mL
S. aureus ATCC 25923
  MIC: 39.47 µg/mL
E. coli ATCC 25922
  NPN uptake: 35.7%
A. baumannii KCTC 2508
  MIC: 19.74 µg/mL
